This test addresses Protein kinase C alpha type (Rattus norvegicus, UniProt P05696). The test is described as follows: Mixed Micelle Assay. The settings on record: pH 7.5; 30 °C. From the text: The triton X-100 assay previously described by Bell and co-workers were used to measure enzyme activity.

For orientation: IC50 means the midpoint of a concentration-inhibition curve. As to `CC(C)CCCC(C)C1CCC2C3CC=C4CC(C(=O)OC(CN(C)C)CN(C)C)CCC4(C)C3CCC12C` (stereo not drawn) [Amphiphile, V], the IC50 is 643 µM.

The molecule `CC(C)CCCC(C)C1CCC2C3CC=C4CC(C(=O)OC(CN(C)C)C[N+](C)(C)C)CCC4(C)C3CCC12C` (stereo not drawn) [Amphiphile, VI] yielded an IC50 of 11 µM.

On to `CC(C)CCCC(C)C1CCC2C3CC=C4CC(C(=O)NCC[N+](C)(C)C)CCC4(C)C3CCC12C` (stereo not drawn) [Amphiphile, IV], for which the IC50 was 12 µM.

`CC(C)CCCC(N)C1CCN2C3OC=C4CC(OC(=O)CCC(=O)OCCN(C)CC[N+](C)(C)C)CCC4(C)C3CCC12C` (stereo not drawn) [Amphiphile, XIII] registered an IC50 of 20 µM.

Take `CC(C)CCCC(N)C1CCN2C3OC=C4CC(OC(=O)CCC(=O)NCC[N+](C)(C)C)CCC4(C)C3CCC12C` (stereo not drawn) [Amphiphile, IX]: inhibition was half-maximal at 59 µM (IC50).

Take `CC(C)CCCC(C)C1CCC2C3CC=C4CC(C(=O)NCCN)CCC4(C)C3CCC12C` (stereo not drawn) [Amphiphile, VII]: the IC50 is 246 µM.

As for `CC(C)CCCC(N)C1CCN2C3OC=C4CC(OC(=O)CCC(=O)OC(CN(C)C)C[N+](C)(C)C)CCC4(C)C3CCC12C` (stereo not drawn) [Amphiphile, XI], the half-inhibitory concentration (IC50) was 15 µM.

Turning to `CC(C)CCCC(N)C1CCN2C3OC=C4CC(OC(=O)CCC(=O)NCCN(C)C)CCC4(C)C3CCC12C` (stereo not drawn) [Amphiphile, VIII], the IC50 came to 191 µM.

`CCCCCCCCCCCCCCCCCCCCCC(=O)OC(CN(C)C)C[N+](C)(C)C` (stereo not drawn) [Amphiphile, XVI] gave an IC50 of 26 µM.

As for `CC(C)CCCC(N)C1CCN2C3OC=C4CC(OC(=O)CCC(=O)OCCN(C)CCN(C)C)CCC4(C)C3CCC12C` (stereo not drawn) [Amphiphile, XII], it took 164 µM to reach half-maximal inhibition (IC50).

In the case of `CC(C)CCCC(C)C1CCC2C3CC=C4CC(C(=O)NCCN(C)C)CCC4(C)C3CCC12C` (stereo not drawn) [Amphiphile, III], the IC50 came out at 258 µM.

Take `CC(C)CCCC(N)C1CCN2C3OC=C4CC(OC(=O)CCC(=O)OC(CN(C)C)CN(C)C)CCC4(C)C3CCC12C` (stereo not drawn) [Amphiphile, X]: it took 408 µM to reach half-maximal inhibition (IC50).

`CCCCCCCCCCCCCCCCCCCCCCCC(=O)OC(CN(C)C)C[N+](C)(C)C` (stereo not drawn) [Amphiphile, XVII]: the IC50 is 40 µM.

The record behind these values is BindingDB's records for doi:10.1021/bi00152a045 (Mcmaster University, 1992).
